From publication PMC6736568, “Discovery of Novel Anti-cryptosporidial Activities From Natural Products by in vitro High-Throughput Phenotypic Screening” (Frontiers in Microbiology, 2019)
Read-outs that look alike come from different tables or passages of the source.

Tests used:
Cryptosporidium parvum = experiment: qRT-PCR assay of the growth of C. parvum in vitro in HCT-8 host cells (primary and secondary screening, EC50); assay type: cell-based
[1] = primary screening at 10 uM, from Hs18S ΔCT
[2] = primary screening at 10 uM, treated vs control

Row | Compound | Inhibition (%) (Cryptosporidium parvum; primary screening at 10 uM) | Cytotoxicity (%) (HCT-8 host cells (Hs18S); [1]) | Hs18S ΔCT (HCT-8 host cells (Hs18S); [2]) | other results
1 | CC1(C)C2CC(=O)[C@]3(C)C(CC[C@@]4(C)[C@H](c5ccoc5)OC(=O)C5OC543)[C@@]2(C)[C@@H](O)C[C@H]1O (stereo partly shown) | 69.64 | 4.7 | 0.07 | % Inhibition (3.3 uM) (Cryptosporidium parvum; secondary screening at 3.3 uM): 3%
2 | C=C1CCC(C2CC(=O)OC2=O)C(=O)CCC2C1CC2(C)C (stereo not shown) | 23.70 | -6.8 | -0.09 | 
3 | C/C1=C\CC/C(C)=C/CC(C)(C)/C=C/C1 | -30.91 | 0.1 | 0.00 | 
4 | CC[C@H](C=C[C@@H](C)[C@H]1CC[C@H]2[C@@H]3CCC4=CC(=O)CC[C@]4(C)[C@H]3CC[C@]12C)C(C)C |  |  |  | % Inhibition (3.3 uM) (Cryptosporidium parvum): -6; Inhibition (%) (Cryptosporidium parvum; 10 µM): 64.69; Hs18S ΔCT (HCT-8 host cells (Hs18S)): 0.46; Cytotoxicity (%) (HCT-8 host cells (Hs18S); 10 µM): 27.4
5 | 3-ACETYLGEDUNOL | -40.49 | 56.3 | 1.19 | 
6 | CC1=CC(=O)CC(C)(C)C1(O)/C=C/C(C)=C\C(=O)O (racemic) [ABSCISIC ACID (cis,trans; +/-)] | -7.09 | 36.3 | 0.65 | 
7 | C=CC[S+]([O-])C[C@H](N)C(=O)O (mixture of isomers) [L(+/-)-ALLIIN] | 21.98 | -12.5 | -0.17 | 
8 | CC1(C)C(=O)[C@@H]2O[C@@H]2[C@@]2(C)C1C[C@@H](O)[C@]1(C)C2CC[C@@]2(C)[C@H](c3ccoc3)OC(=O)C3OC321 (stereo partly drawn) [1,2alpha-EPOXYDEACETOXYDIHYDROGEDUNIN] | 56.48 | -12.9 | -0.18 | 
9 | CC1(C)C2CC(=O)[C@]3(C)C(CC[C@@]4(C)[C@H](c5ccoc5)OC(=O)[C@H]5O[C@]543)[C@@]2(C)C(=O)C[C@H]1O (stereo partly shown) [1,7-DIDEACETOXY-1,7-DIOXO-3-DEACETYLKHIVORIN] | 26.84 | -6.9 | -0.10 | 
10 | COc1cc2oc3cc(OC)c(OC)c(CC=C(C)C)c3c(=O)c2c(O)c1CC=C(C)C [1-HYDROXY-3,6,7-TRIMETHOXY-2,8-DIPRENYLXANTHONE] | -18.05 | 7.7 | 0.12 | 
11 | C[C@@H](N)[C@@H](O)c1ccccc1 [1R,2S-PHENYLPROPYLAMINE] | -7.00 |  |  | Hs18S ΔCT (HCT-8 host cells (Hs18S)): -0.16; Cytotoxicity (%) (HCT-8 host cells (Hs18S); 10 µM): -12.0
12 | COc1cc(O)c(C(=O)/C=C/c2ccc(OC)c(O)c2)c(OC)c1 [2',3-DIHYDROXY-4,4',6'-TRIMETHOXYCHALCONE] | -6.64 | -22.2 | -0.29 | 
13 | COc1ccc(/C=C/C(=O)c2ccc(O)cc2O)cc1 [2',4'-DIHYDROXY-4-METHOXYCHALCONE] | 14.88 | -99.8 | -1.00 | 
14 | COc1cc(O)c(C(=O)/C=C/c2ccc(O)c(OC)c2)c(OC)c1 [2',4-DIHYDROXY-3,4',6'-TRIMETHOXYCHALCONE] |  |  | 0.09 | 
15 | O=C(/C=C/c1ccc(O)cc1)c1ccccc1O [2',4-DIHYDROXYCHALCONE] | -21.40 | 8.3 | 0.13 | 
16 | COc1ccc(/C=C/C(=O)c2cc(O)ccc2O)cc1 [2',5'-DIHYDROXY-4-METHOXYCHALCONE] |  |  |  | Inhibition (%) (Cryptosporidium parvum; 10 µM): -23.93; Hs18S ΔCT (HCT-8 host cells (Hs18S)): -0.46; Cytotoxicity (%) (HCT-8 host cells (Hs18S); 10 µM): -37.7
17 | COc1ccc(-c2oc3cc(OC)c(OC)c(OC)c3c(=O)c2OC)cc1 [3,4',5,6,7-PENTAMETHOXYFLAVONE] | -9.57 | 15.6 | 0.24 | 
18 | COc1ccc(-c2oc3ccccc3c(=O)c2OC)cc1 [3,4'-DIMETHOXYFLAVONE] | -22.87 | 22.3 | 0.36 | 
19 | CC1(C)CC2C1CC[C@]1(C)CCC3C(C(=O)O)CC(=O)O[C@@]32C1 (stereo partly shown) [3-HYDROXY-4-(SUCCIN-2-YL)-CARYOLANE delta-LACTONE] | 51.45 | 28.8 | 0.49 | 
20 | NCCc1ccc(O)c(O)c1 [3-HYDROXYTYRAMINE] |  |  |  | % Inhibition (3.3 uM) (Cryptosporidium parvum; secondary screening at 3.3 uM): 6%; Hs18S ΔCT (HCT-8 host cells (Hs18S)): 0.76; Cytotoxicity (%) (HCT-8 host cells (Hs18S); 10 µM): 41.1
21 | CC(=O)OC1CCC2(C)C(CC(OC(C)=O)C3(C)C4=CC(=O)OC(c5ccoc5)C4(C)CCC23)C1(C)C (stereo not drawn) [3alpha-ACETOXYDIHYDRODEOXYGEDUNIN] |  |  | -0.24 | % Inhibition (3.3 uM) (Cryptosporidium parvum; secondary screening at 3.3 uM): 25%
22 | CC(=O)O[C@H]1C[C@@H](OC(C)=O)C(C)(C)C2C[C@@H](O)[C@]3(C)C(CC[C@@]4(C)[C@H](c5ccoc5)OC(=O)[C@H]5O[C@]543)[C@]21C (stereo partly shown) [7-DEACETYLKHIVORIN] |  | -46.2 | -0.55 | 
23 | CC1(C)C(=O)C=C[C@]2(C)[C@H]3CC[C@@]4(C)[C@H](c5ccoc5)OC(=O)[C@H]5O[C@]54[C@]3(C)C=C[C@@H]12 [7-DESACETOXY-6,7-DEHYDROGEDUNIN] |  |  | 5.31 | 
24 | C=CCc1cc(OC)c2c(c1OC)OCO2 [APIOLE] |  |  | 0.06 | 
25 | CN1CCc2cc3c(cc2[C@H]1[C@@H]1OC(=O)c2c1ccc1c2OCO1)OCO3 [BICUCULLINE (+)] |  | -169.4 | -1.43 | 

Row | Compound | Inhibition (%) (Cryptosporidium parvum; primary screening at 10 uM) | Cytotoxicity (%) (HCT-8 host cells (Hs18S); [1]) | Hs18S ΔCT (HCT-8 host cells (Hs18S); [2]) | other results
26 | CC12CCC(CC1=O)C2(C)C [CAMPHOR (1R)] |  |  | -0.22 | 
27 | COC(=O)C[C@H]1C(C)(C)C(=O)[C@@H]2CC3=C(CC[C@]4(C)C3=CC(=O)O[C@H]4c3ccoc3)[C@@]1(C)C2=O [CARAPIN-8(9)-ENE] |  |  | -0.62 | 
28 | C=C1CC/C=C(\C)CC[C@@H]2[C@@H]1CC2(C)C [CARYOPHYLLENE [t(-)]] |  | 20.0 | 0.32 | 
29 | C[C@H](CCC(=O)O)[C@H]1CC[C@H]2[C@@H]3[C@H](O)C[C@@H]4C[C@H](O)CC[C@]4(C)[C@H]3C[C@H](O)[C@]12C [CHOLIC ACID] |  |  |  | inhibition at 10 µM (Cryptosporidium parvum; Cryptosporidium parvum, HCT-8, primary screening at 10 uM, read-out: Inhibition (%)): 26.7%
30 | CCC(C)C(=O)O[C@@H]1C[C@@]2(C)[C@H](c3ccoc3)OC(=O)CC23OC2(C)OC34[C@H](OC(=O)C(C)C)[C@@]3(O)[C@@H](OC(=O)C5(C)OC5C)[C@@]5(C)C[C@]3(O)[C@@](C)([C@H]5CC(=O)OC)C14O2 (stereo partly shown) [ENTANDROPHRAGMIN] |  |  | -0.12 | 
31 | CN[C@@H](C)[C@H](O)c1ccccc1.Cl [EPHEDRINE (1R,2S) HYDROCHLORIDE] | 11.97 |  |  | 
32 | COc1cc(/C=C/C(=O)O)ccc1O [FERULIC ACID] |  |  | -0.04 | 
33 | CC[C@H](CC[C@@H](C)[C@H]1CC[C@H]2[C@@H]3CC[C@H]4C[C@@H](O)CC[C@]4(C)[C@H]3CC[C@]12C)C(C)C [FUCOSTANOL] |  | -61.6 | -0.69 | 
34 | Cc1cc(=O)oc2cc(O)ccc12 [HYMECHROME] |  |  | -0.28 | 
35 | CC(=O)Oc1cc(-c2coc3cc(OC(C)=O)c(OC(C)=O)c(OC(C)=O)c3c2=O)cc(OC(C)=O)c1OC(C)=O [IRIGINOL HEXAACETATE] |  |  | -0.17 | 
36 | CC1(C)C=Cc2c(c3c(c4c(=O)c(-c5ccc(O)c(O)c5)coc24)OC(C)(C)CC3)O1 [ISOPOMIFERIN] |  | -5.3 | -0.07 | 
37 | CNCc1ccccc1.Cl [N-METHYLBENZYLAMINE HYDROCHLORIDE] |  |  | -0.08 | 
38 | Cl.NCCC[C@H](N)C(=O)O [ORNITHINE HYDROCHLORIDE] | -42.36 |  |  | 
39 | CCCCCCCCCCCC[C@@H](C(=O)O)[C@H](C)C(=O)O [ROCCELLIC ACID] |  | -4.1 | -0.06 | 
40 | COc1cc(/C=C/C(=O)O)cc(OC)c1O [SINAPIC ACID] |  |  | 0.25 | 
41 | COc1ccc(-c2cc(=O)c3c(OC)c(OC)c(OC)c(OC)c3o2)cc1 [TANGERITIN] |  | 8.0 | 0.12 | 
42 | Cc1c(S(=O)(=O)[O-])oc2c1C(=O)C(=O)c1c-2ccc2c1CCCC2(C)C.[Na+] [TANSHINONE IIA SULFONATE SODIUM] |  |  | 0.01 | 
43 | COC1=C(OC)C(=O)C(C/C=C(\C)CC/C=C(\C)CC/C=C(\C)CC/C=C(\C)CC/C=C(\C)CC/C=C(\C)CC/C=C(\C)CC/C=C(\C)CC/C=C(\C)CCC=C(C)C)=C(C)C1=O [UBIDECARENEONE] |  | 21.3 | 0.35 | 
44 | COc1c(O)cc2oc3cc(O)c(CC=C(C)C)c(O)c3c(=O)c2c1CC=C(C)C [alpha-MANGOSTIN] |  | 95.1 | 4.36 | 
45 | COc1cc2c(cc1OC)C1C(=O)c3c(O)cc4c(c3OC1CO2)C=CC(C)(C)O4 (stereo not drawn) [alpha-TOXICAROL (dl)] |  |  | 0.01 | 
46 | HECOGENIN |  |  | -0.23 | 
47 | ISOTECTORIGENIN, 7-METHYL ETHER | -18.66 |  |  | 
48 | MEPARTRICIN |  |  | -0.51 | 
49 | MONENSIN SODIUM (monensin A is shown) | 94.05 |  |  | % Inhibition (3.3 uM) (Cryptosporidium parvum; secondary screening at 3.3 uM): 99%
